Data reported in PMC10882491 (Chemical Science, 2024).
Blank lines part the entries; values can stand above or below the molecule they belong to.

How the values were obtained:
[1] = target: T1, AURKA (Homo sapiens, UniProt O14965); assay: single-temperature TPP with PRM-MS in K562 lysate; assay type: cell-based
T1 sequence (O14965 1-403): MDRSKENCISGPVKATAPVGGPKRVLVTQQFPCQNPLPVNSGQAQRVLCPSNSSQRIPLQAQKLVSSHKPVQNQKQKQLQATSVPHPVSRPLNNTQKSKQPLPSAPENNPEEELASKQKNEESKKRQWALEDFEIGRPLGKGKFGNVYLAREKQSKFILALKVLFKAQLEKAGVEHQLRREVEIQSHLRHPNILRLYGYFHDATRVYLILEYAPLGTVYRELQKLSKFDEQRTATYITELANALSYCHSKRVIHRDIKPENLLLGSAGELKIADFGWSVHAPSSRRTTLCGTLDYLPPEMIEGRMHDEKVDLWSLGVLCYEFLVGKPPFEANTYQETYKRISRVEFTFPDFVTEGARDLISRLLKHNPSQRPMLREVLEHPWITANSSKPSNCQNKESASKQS

[2] = target: T2, GRK2 (Homo sapiens, UniProt P25098); assay: western blot CETSA, isothermal dose-response at […] °C; assay type: biochemical
T2 sequence (P25098 1-689): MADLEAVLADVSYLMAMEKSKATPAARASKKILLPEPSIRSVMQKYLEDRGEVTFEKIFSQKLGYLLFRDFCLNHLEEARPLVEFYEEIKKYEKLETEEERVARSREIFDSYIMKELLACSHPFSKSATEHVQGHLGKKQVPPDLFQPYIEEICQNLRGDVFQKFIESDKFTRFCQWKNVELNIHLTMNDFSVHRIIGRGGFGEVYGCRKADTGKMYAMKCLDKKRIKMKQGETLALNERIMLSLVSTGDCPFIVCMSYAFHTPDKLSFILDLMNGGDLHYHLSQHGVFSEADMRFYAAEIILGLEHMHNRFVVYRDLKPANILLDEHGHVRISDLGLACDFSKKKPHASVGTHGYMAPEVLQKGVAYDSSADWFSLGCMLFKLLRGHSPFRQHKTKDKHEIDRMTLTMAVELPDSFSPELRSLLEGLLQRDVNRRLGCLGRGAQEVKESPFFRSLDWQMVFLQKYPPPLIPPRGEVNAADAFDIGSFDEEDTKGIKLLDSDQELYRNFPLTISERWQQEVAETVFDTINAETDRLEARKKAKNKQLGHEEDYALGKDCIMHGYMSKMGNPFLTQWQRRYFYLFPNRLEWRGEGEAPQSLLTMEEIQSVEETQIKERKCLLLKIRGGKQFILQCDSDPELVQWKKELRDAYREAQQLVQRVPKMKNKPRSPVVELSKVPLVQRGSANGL

[3] = target: PIP4K2C (Homo sapiens, UniProt Q8TBX8); assay: NanoBRET target engagement in living HEK293 cells; assay type: cell-based
PIP4K2C, sequence (Q8TBX8 2-421): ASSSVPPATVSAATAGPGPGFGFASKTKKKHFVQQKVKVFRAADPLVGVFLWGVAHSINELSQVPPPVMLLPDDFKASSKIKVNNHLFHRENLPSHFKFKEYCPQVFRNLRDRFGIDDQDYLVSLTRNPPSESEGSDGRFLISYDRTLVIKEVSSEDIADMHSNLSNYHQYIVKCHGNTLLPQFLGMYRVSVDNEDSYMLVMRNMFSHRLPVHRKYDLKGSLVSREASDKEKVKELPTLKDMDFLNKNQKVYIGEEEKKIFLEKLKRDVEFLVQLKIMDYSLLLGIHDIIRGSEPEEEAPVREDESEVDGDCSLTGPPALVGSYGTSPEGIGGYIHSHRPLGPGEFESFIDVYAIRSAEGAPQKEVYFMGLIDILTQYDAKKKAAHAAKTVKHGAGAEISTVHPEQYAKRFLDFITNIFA

Compound: COc1cc(Nc2ncc3c(n2)-c2ccc(Cl)cc2C(c2c(F)cccc2OC)=NC3)ccc1C(=O)O [alisertib]
single-temperature TPP with PRM-MS in K562 lysate [1]: PRM data confirmed that all of these targets exhibit significantly higher abundance in the drug treatment groups

IC50 [2]: 6.7 µM
Compound: Cc1nc2ccc(CN(C)c3ccc(C(=O)N[C@@H](CCC(=O)O)C(=O)O)s3)cc2c(=O)[nH]1 [raltitrexed]

IC50 [3]: 0.25 µM
Compound: NC(=O)c1nc(Nc2ccccc2)sc1NC(=O)C1CCCCC1 [UNC3230]
